US20070087982A1, “Methods of treatment and diagnosis using modulators of virus-induced cellular gene sequences” (priority 2003, published 2007)

Experiments:
[1] = tested on: c-yes mRNA; assay: Quantitative RT-PCR of c-yes mRNA in siRNA-transfected Huh7 cells; type: cell-based, human; conditions: 2 μl of 20 μM siRNA per 300,000 cells, harvested 24 hpi
Method: Huh7 cells were transfected with either of c-yes-specific siRNAs 214 or 316, or a control siRNA directed against Lamins A and C. Transfection of 300,000 cells was carried out with 2 μl of a 20 μM siRNA (Dharmacon) and 1 μl Oligofectamine (Invitrogen) according to the manufacturer's protocol. Cells were […] 24 hours post-transfection, and cells and supernatant harvested at 24 hpi. 1 μg total cellular RNA was used for quantitative RT-PCR with c-yes-specific primers.

[2] = tested on: HIV-1 89.6; assay: HIV replication assay (HIV-1 p24 antigen ELISA) in HIV-infected THP-1 and MT-2 cells; type: cell-based; conditions: for Extent of PMO-induced Inhibition of HIV replication: HIV-1 89.6, measured by gag p24 production, gene-specific PMO antisense
Text: Introduction of antisense PMO into HIV-infected THP-1 or MT-2 cells. Antisense PMO molecules, for delivery purposes, are typically converted to a paired duplex together with a partially complementary cDNA oligonucleotide in the weakly basic delivery reagent ethoxylated polyethylenimine (EPEI) (Summerton, supra). The anionic complex binds to the cell surface, is taken up by endocytosis and eventually released into the cytosol. A protocol for optimum uptake of antisense PMO in THP-1 and MT-2 cells was developed using a modification of the EPEI method. PMO-AS were obtained from GeneTools (Genetools, LLC, One Summerton Way, Philomath, Oreg. 97370).
Briefly, loading into target cells was accomplished by complexing the PMO with a proprietary loading reagent, Ethoxylated Polyethylenimine (EPEI). Target cells (MT-2 or THP-1) were introduced into snap cap conical tubes (5×10^5 cells/tube) in 900 μl serum free RPMI and the EPEI-PMO complex was added for 4 hours at 37° C. in a 7% CO2 atmosphere. The PMO-EPEI complex was prepared by diluting 5 μl PMO in 40 μl sterile RNase-free water, adding 5 μl EPEI, vortexing and incubating the sample for 20 minutes at room temperature. The sample was then mixed with 50 μl serum-free RPMI and added to the target cells to yield a final volume of 1 ml. At the end of the loading period, cells were gently pelleted and the PMO solution was removed by aspiration. After a further wash, cells were incubated in complete RPMI for 12 hrs prior to HIV infection to allow for recovery and initiation of PMO action.
HIV-1 Infection. PMO-treated THP-1 or MT-2 cells were infected with 50 μl of concentrated HIV-1 89.6 diluted to 1 ml in serum-free RPMI. The following control cultures were identically infected: (i) to control for any non-specific effect of the loading protocol, cells exposed to EPEI alone during the loading procedure; (ii) as a positive control for normal HIV infection, cells that were not exposed to either EPEI or EPEI-PMO; (iii) as a control for HIV inhibition, cells infected with HIV in the presence of 2 μM AZT and maintained in AZT throughout.
Cells were exposed to HIV for 4 hours. The inoculum was removed by 3 cycles of pelleting and rinsing. The cells were resuspended in 1.5 ml of complete RPMI and 0.5 ml immediately removed at Time 0 to leave a final volume of 1 ml. The Time 0 sample served as a measure of residual virus. At each harvest time (T1 through T4), 0.5 ml of supernatant was removed and replaced with an equal volume of complete RPMI. Samples were stored at −80° C. until evaluation using a p24 ELISA assay (described below). Each experimental variable and control was performed in duplicate. T1 through T4 typically corresponded to 16, 24, 40 and 48 hrs PI, respectively.
Validation of KSHV-induced gene sequences; HIV-1 p24 antigen ELISA. To monitor the effect of PMO-targeting of cellular proteins on HIV replication, supernatants harvested from PMO-treated and control THP and MT-2 cells were assayed using an HIV p24 antigen ELISA. The rationale behind this assay is described in the following paragraph.
The HIV-1 gag protein p24 is the major internal structural component of the virion core. The Coulter p24 assay is an enzyme-liked immunosorbent assay (ELISA) performed using a commercially available kit (Beckman Coulter). It was developed specifically for the detection and quantitation of HIV-1 p24 in plasma or serum, for clinical purposes, or in tissue culture supernatants, to monitor virus replication. Each kit contains a 96-well microtiter tray pre-coated with a monoclonal antibody to p24. A specimen of plasma, serum or tissue culture supernatant is added to each well along with a viral lysis buffer and incubated to allow any p24 antigen present to bind to the coated well. Following a wash, biotinylated human anti-HIV IgG is added and incubated to allow complexing to any bound p24. Following another wash, strepatavidin-HRP is added to complex with any bound biotinylated complexes. […]

[3] = tested on: HIV-infected MT-2 cells; assay: HIV-induced syncytia formation in MT-2 cells; type: cell-based, human; conditions: 48 hours post infection
Method: The panels of FIG. 7 show the relative extent of HIV-induced syncytia formation in MT-2 cells at 48 hours post infection under various conditions. “Control” cells are HIV-infected cells, but are not treated with any test agent. “DMSO” treatment alone is also included as a control. Other treatments include, AZT, PP3 and PP2, all solubilized in DMSO.

[4] = tested on: mitochondrial respiration in viable cells; assay: XTT respiration assay to assess compound toxicity; type: cell-based; conditions: at the concentrations used (20/40 μM Doxepin, 50/100 μM Pyrilamine, 50/100 μM Acyclovir, 20 μM PP2, 20 μM PP3)
Text: The agents tested are cross-referenced to the respective bar graphs as shown in insert of the right panel. […] Briefly, the XTT assay is based on the cleavage of XTT (sodium 3-[1-(phenylamino-carbonyl)-3,4-tetrazolium]-bis (4-methoxy-6-nitro) benzene sulfonic acid hydrate) to form formazan by mitochondrial respiration in viable cells (see, e.g., Marshall et al., Growth Regul. 5:69-84, 1995).

[5] = tested on: WNV E protein; assay: Endo H / PNGase F sensitivity of WNV E protein in infected Vero cells (western blot); type: cell-based, West Nile virus; conditions: WNV multiplicity 3, PP2 added 1 hpi, 24 hpi, consistent at 48 h
Method: Inhibition of src-family kinases (SFKs) may result in mis-localization or aberrant trafficking of WNV proteins, thereby interfering with formation of infectious particles. To test this hypothesis, lysates from WNV-infected cells (with or without PP2) were treated with Endoglycosidase H (Endo H) or Peptide N-glycosidase F (PNGase F).
Endo H removes immature high-mannose glycans from proteins. High-mannose structures are added to proteins in the endoplasmic reticulum (ER). Such structures are trimmed and further modified in the Golgi, conferring resistance to endo H. Sensitivity to endo H is therefore indicative of proteins that have not advanced beyond the endoplasmic reticulum in the secretory pathway (Maley, et al., Anal. Biochem. 180:195, 1989.
PNGase F will remove all glycan moieties regardless of modification.
Methods. Vero cells were infected with WNV (multiplicity=3) and treated with PP2 (or DMSO as a control) 1 h post-infection (hpi). At 24 or 48 hpi, cells were lysed in buffer containing 1% NP-40. Lysates were denatured and treated with endo H or PNGase F for 1 h. Samples were resolved by SDS-PAGE, and WNV E was detected by western blotting.

[6] = tested on: HIV-1 89.6; assay: HIV replication assay (HIV-1 p24 antigen ELISA) in HIV-infected THP-1 and MT-2 cells; type: cell-based; conditions: MT-2 cells infected with HIV 89.6; continued presence of 10 μM
[7] = tested on: WNV (NY1999); assay: Infectious WNV in culture supernatant of SKN-MC cells (plaque assay on Vero cells); type: cell-based, West Nile virus; conditions: multiplicity of infection 5, 20 μM, 22 hours post-infection (20 h post-PP2 addition)
Text: SKN-MC neutoblastoma cells were infected with WNV at a multiplicity of 5.

[8] = tested on: WNV; assay: Infectious WNV within infected SKN-MC cell lysates (plaque assay on Vero cells); type: cell-based, West Nile virus
Method: Additionally, infectious virus within infected cell lysates was decreased almost 10^6-fold four hours post-addition of PP2 (FIG. 8B, gray bars; and FIG. 15, left panel). […] Specifically, SKN-MC cells were infected with WNV as above. At 2 hpi, cells were treated with PP2 at the indicated final concentrations. At 20 hpi, cells were re-fed with media containing fresh PP2 at the same concentration. Cells were washed 3-times with phosphate buffered saline (PBS), resuspended in 250 μl PBS, and then lysed by 3 successive freeze/thaws. Lysates were centrifuged at 13,000×g for 5 minutes, followed by collection of the supernatant. Infectious virus in soluble lysate was measured by plaque assay on Vero cells. Samples were collected 4-hours post-addition of fresh PP2 (gray bars) and 24 hours post addition of fresh PP2 (black bars). 24-hours post-addition of PP2, virus within the infected cell was approximately 500-fold lower, indicating some recovery from the effect of the drug (FIG. 8B, black bars).

[9] = tested on: WNV RNA; assay: Quantitative RT-PCR (Taqman) of WNV RNA within infected SKN-MC cells; type: cell-based, West Nile virus; conditions: 4 hours post PP2 addition, normalized to β-actin
Method: Specifically, cells were prepared as described above in relation to FIG. 8B. Four hours post fresh PP2 addition, RNA was isolated from 200 μl of cell lysate by Trizol reagent (Invitrogen), and 1 μg total RNA was used in a quantitative RT-PCR reaction (Taqman) using WNV-specific primer and probe set and standards. An additional RT-PCR was performed using β-actin-specific primers and probe, for an internal control. WNV RNA quantities were normalized to the β-actin values.

[10] = PMO-treated HIV-infected MT-2 cells
[11] = PMO-treated HIV-infected THP-1 cells

Row | Compound | Extent of PMO-induced Inhibition of HIV replication [2] | inhibition of HIV replication (HIV p24 gag production) [2, 10] | inhibition of HIV replication (HIV p24 gag production) [2, 11] | also measured
1 | c-yes-specific siRNA 214 (guide AACGCCUUUUGGAGGUGCAUC; chemistry not given here; listed as Homo sapiens) | – | – | – | c-yes mRNA [1]: reduction of c-yes mRNA
2 | HMG20B (antisense CGCCCAGCATCTTGGTGATCTCGGG; all phosphorodiamidate morpholino (PMO)) | positive | particularly effective at reproducibly inhibiting HIV replication | particularly effective at reproducibly inhibiting HIV replication | –
3 | Cc1cn([C@H]2C[C@H](N=[N+]=[N-])[C@@H](CO)O2)c(=O)[nH]c1=O [AZT] | – | – | – | HIV-induced syncytia formation [3]: substantially reduced syncytia formation
4 | CN(C)CCC=C1c2ccccc2COc2ccccc21 [doxepin] | – | – | – | compound toxicity (XTT respiration assay) [4]: Except for the higher concentration of doxepin, the compounds were not toxic
5 | CC(C)(C)n1nc(-c2ccc(Cl)cc2)c2c(N)ncnc21 [PP2, 4-Amino-5-(4-chlorophenyl)-7-(t-butyl)pyrazolo[3,4-d]pyrimidine] | – | – | – | proportion of endo H-resistant population of WNV E protein [5]: dramatically decreased; HIV-induced syncytia formation [3]: substantially reduced syncytia formation; HIV p24 production [6]: substantial decrease; decrease of infectious WNV in the supernatant [7]: 30 fold; virus within the infected cell, lower than untreated ([8]; 24 hours post-addition of fresh PP2): approximately 500 fold; decrease of infectious virus within infected cell lysates ([8]; four hours post-addition of fresh PP2): ~10^6 fold; viral RNA within infected cells, treated vs untreated [9]: no significant difference; anti-HIV activity (p24 production) ([2]; HIV-infected cells, 20 μM): substantial inhibition of HIV
6 | HRH1 (antisense GCGAAAGAGCAGCCGCCAGTTATGG; all phosphorodiamidate morpholino (PMO)) | positive | particularly effective at reproducibly inhibiting HIV replication | particularly effective at reproducibly inhibiting HIV replication | –
7 | YES (antisense TTTCTTTACTTTTAATGCAGCCCAT; all phosphorodiamidate morpholino (PMO)) | positive | particularly effective at reproducibly inhibiting HIV replication | particularly effective at reproducibly inhibiting HIV replication | –
8 | ARF1 (antisense ATGCTTGTGGACAGGTGGAAGGACA; all phosphorodiamidate morpholino (PMO)) | (negative) | little or no affect on HIV replication | – | –
